The supplement of paper PMC10307832

How the values were obtained:
PAC-1 + Vorinostat = compound: C=CCc1cccc(/C=N/NC(=O)CN2CCN(Cc3ccccc3)CC2)c1O [PAC-1] + O=C(CCCCCCC(=O)Nc1ccccc1)NO [Vorinostat] (partner 1 µM); test: relative viability (nuclei count vs DMSO), 5 days (fraction); higher = more cells survive
How it was run: (§1)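 The day after seeding in 1536-well plates, lung cancer cell lines were treated by pin tool with a single drug, or with a fixed anchor-drug dose together with five library-drug doses (not always all listed) in √10 steps. After 5 days, a combined fix-and-stain solution (final 0.05% Triton X-100, 1% formaldehyde, 1 ug/ml Hoechst) was added. Nuclei counted on 4× images gave relative viability as treated counts over vehicle counts, reported as the median of duplicate plates.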

BMX-IN-1 + Palbociclib = compound: C=CC(=O)Nc1cc(-n2c(=O)ccc3cnc4ccc(-c5ccc(NS(C)(=O)=O)cc5)cc4c32)ccc1C [BMX-IN-1] + CC(=O)c1c(C)c2cnc(Nc3ccc(N4CCNCC4)cn3)nc2n(C2CCCC2)c1=O [Palbociclib] (partner 0.5 µM); test: as above
How it was run: as §1

Cell Line | relative viability (PAC-1 + Vorinostat; first compound 0.02 µM) | relative viability (PAC-1 + Vorinostat; first compound 0.06325 µM) | relative viability (PAC-1 + Vorinostat; first compound 0.2 µM) | relative viability (PAC-1 + Vorinostat; first compound 2 µM) | relative viability (BMX-IN-1 + Palbociclib; first compound 0.02 µM) | relative viability (BMX-IN-1 + Palbociclib; first compound 0.2 µM) | relative viability (BMX-IN-1 + Palbociclib; first compound 0.6325 µM) | relative viability (BMX-IN-1 + Palbociclib; first compound 2 µM)
NCI-H23 | 0.692 | 0.567 | 0.651 | 0.751 | 0.536 | 0.526 | 0.555 | 0.47
COR-L23 | 0.415 | 0.429 |  | 0.364 | 0.306 | 0.293 | 0.384 | 0.311
PC-14 | 0.816 | 0.764 | 0.629 | 0.743 | 0.583 | 0.478 | 0.58 | 0.47
NCI-H2342 | 0.733 | 0.659 | 0.802 | 0.739 | 0.578 | 0.519 | 0.51 | 0.568
LCLC-97TM1 | 0.776 | 0.805 |  | 0.761 | 0.247 | 0.3 | 0.227 | 0.217
HOP-62 | 0.596 | 0.518 | 0.473 | 0.655 | 0.53 | 0.543 | 0.48 | 0.471
NCI-H727 | 1.09 | 1.1 | 1.06 | 1.13 | 0.611 | 0.672 | 0.625 | 0.592
NCI-H1734 | 0.825 | 0.792 | 0.767 | 0.895 | 0.37 | 0.375 | 0.386 | 0.329
NCI-H1651 | 0.544 | 0.531 | 0.489 | 0.588 | 0.598 | 0.559 | 0.511 | 0.533
NCI-H2170 | 0.894 | 0.809 | 0.795 | 0.775 | 0.426 | 0.421 | 0.447 | 0.373
NCI-H1650 | 0.507 | 0.672 | 0.52 | 0.418 | 0.307 | 0.313 | 0.32 | 0.333
LK-2 | 0.317 | 0.306 | 0.301 | 0.58 | 1.1 | 0.75 | 0.704 | 0.895
NCI-H522 | 0.902 | 0.846 | 0.941 | 0.862 | 0.841 | 1.14 | 1.02 | 0.86
NCI-H2009 | 0.669 | 0.685 | 0.732 | 0.741 | 0.182 | 0.212 | 0.207 | 0.254
NCI-H2347 | 0.589 | 0.593 | 0.606 | 0.657 | 0.443 | 0.406 | 0.458 | 0.393
NCI-H460 | 0.755 | 0.75 | 0.642 | 0.707 | 0.131 | 0.195 | 0.213 | 0.149
LC-2-ad | 0.743 | 0.632 | 0.691 | 0.698 | 0.498 | 0.574 | 0.543 | 0.509
NCI-H596 | 0.619 | 0.603 | 0.643 | 0.741 |  |  |  | 
A-427 | 0.891 | 0.889 | 0.86 | 0.8 | 0.488 | 0.573 | 0.571 | 0.504

Cell Line | relative viability (PAC-1 + Vorinostat; first compound 0.02 µM) | relative viability (PAC-1 + Vorinostat; first compound 0.06325 µM) | relative viability (PAC-1 + Vorinostat; first compound 0.2 µM) | relative viability (PAC-1 + Vorinostat; first compound 2 µM) | relative viability (BMX-IN-1 + Palbociclib; first compound 0.02 µM) | relative viability (BMX-IN-1 + Palbociclib; first compound 0.2 µM) | relative viability (BMX-IN-1 + Palbociclib; first compound 0.6325 µM) | relative viability (BMX-IN-1 + Palbociclib; first compound 2 µM)
HCC-44 | 1.11 | 1.05 | 1.03 | 1.09 | 1.02 | 0.96 | 0.996 | 0.979
HCC-827 | 0.903 | 0.857 | 0.752 | 0.841 | 0.486 | 0.409 | 0.503 | 0.467
NCI-H1915 | 0.507 | 0.506 | 0.427 | 0.562 | 0.54 | 0.543 | 0.555 | 0.538
NCI-H322M | 0.749 | 0.907 | 1.04 | 0.828 | 0.531 | 0.484 | 0.478 | 0.445
IA-LM | 1.15 | 0.915 | 0.879 | 0.961 |  |  |  | 
EKVX | 0.768 | 0.776 | 0.793 | 0.69 | 0.424 | 0.37 | 0.773 | 0.416
EMC-BAC-2 | 0.414 | 0.531 | 0.774 | 0.478 | 0.543 | 0.537 | 0.528 | 0.516
HCC-15 | 0.782 | 0.861 | 0.769 | 0.825 | 0.844 | 0.762 | 0.84 | 0.802
LXF-289 | 0.793 | 0.765 | 0.731 | 0.732 | 0.65 | 0.615 | 0.639 | 0.588
NCI-H358 | 0.645 | 0.665 | 0.706 | 0.674 | 0.129 | 0.138 | 0.147 | 0.122
NCI-H1395 | 0.704 | 0.747 | 0.784 | 0.623 | 0.702 | 0.62 | 0.572 | 0.588
NCI-H838 | 0.68 | 0.72 | 0.782 | 0.745 | 0.241 | 0.198 | 0.222 | 0.24
NCI-H520 | 0.57 | 0.722 | 0.687 | 0.678 | 0.254 | 0.218 | 0.218 | 0.219
SW 1573 | 0.693 | 0.649 | 0.571 | 0.861 | 0.411 | 0.413 | 0.391 | 0.334
201T | 0.957 | 0.949 | 1.09 | 1.05 | 0.392 | 0.391 | 0.42 | 0.348
NCI-H1437 | 0.831 | 0.816 | 0.717 | 0.563 | 0.326 | 0.294 | 0.354 | 0.328
NCI-H1975 | 0.71 | 0.713 | 0.765 | 0.77 | 1 | 0.655 | 0.685 | 0.698
RERF-LC-KJ | 0.715 | 0.67 | 0.475 | 0.711 | 1.15 | 1.11 | 1.18 | 1.16
